Where two headings read alike, the source gives them in different places.
How the values were obtained:
[1] = test system: SW620 cells; experiment: Cellular growth inhibition (sulforhodamine B); assay type: cell-based, Human; conditions: Table 3; for IC50: Homo sapiens, SW-620
Method: (§2) Human A431, BT474, SKBR3, SKOV3, SW620, H1975 and HT29 carcinoma cells in log phase exponential growth in alpha minimal essential media (αMEM) containing 5% fetal bovine serum (FBS), were harvested by trypsinisation (1× trypsin/EDTA, Gibco Brl), counted, and seeded into 96 well plates (Nunc) at cell densities ranging from 800-1500 cells/well. Half of the cell samples were seeded into plates that were pre-equilibrated and held in an anoxic environment (90% N2, 5% H2, 5% CO2, 37° Q Anaerobic chamber, Coy Laboratory Products). […] At the end of this period the anoxic plates were recovered from the anaerobic camber and held under normoxia in a standard CO2 incubator (37° C.) for 20 hours. All plates were washed free of compound and cells were allowed to proliferate for a further 4 days in αMEM containing 5% FBS+antibiotics. Cells were fixed in trichloroacteic acid (30 min), washed and stained with sulforhodamine B (SRB, 60 min) prior to washing in acidified water. SRB was solubilised and absorption read at 450 nm to calculate cell densities. Inhibition of proliferation was calculated relative to untreated control wells.

[2] = biological target: erbB2 (Homo sapiens, UniProt P04626); experiment: Isolated enzyme inhibition (Invitrogen Z′-LYTE kinase assay); assay type: biochemical; conditions: 10 μM ATP, duplicate
Method: (§1) The compounds of Table 1 were tested for their ability to inhibit erbB1, erbB1^T790M, erbB2 and erbB4 in an isolated enzyme assay. This assay utilises synthetic FRET-capable peptide substrates. Phosphorylation of these substrates protects them from cleavage by a development reagent, leaving their FRET-capabilities intact. […] As a further consideration, for compounds capable of irreversible inhibition of an enzyme, the IC50 reflects both reversible and irreversible binding to the enzyme.

[3] = biological target: erbB4 (Homo sapiens, UniProt Q15303); experiment: as above; assay type: biochemical; conditions: 10 μM ATP, duplicate
Sequence of erbB4 (Q15303 26-1308): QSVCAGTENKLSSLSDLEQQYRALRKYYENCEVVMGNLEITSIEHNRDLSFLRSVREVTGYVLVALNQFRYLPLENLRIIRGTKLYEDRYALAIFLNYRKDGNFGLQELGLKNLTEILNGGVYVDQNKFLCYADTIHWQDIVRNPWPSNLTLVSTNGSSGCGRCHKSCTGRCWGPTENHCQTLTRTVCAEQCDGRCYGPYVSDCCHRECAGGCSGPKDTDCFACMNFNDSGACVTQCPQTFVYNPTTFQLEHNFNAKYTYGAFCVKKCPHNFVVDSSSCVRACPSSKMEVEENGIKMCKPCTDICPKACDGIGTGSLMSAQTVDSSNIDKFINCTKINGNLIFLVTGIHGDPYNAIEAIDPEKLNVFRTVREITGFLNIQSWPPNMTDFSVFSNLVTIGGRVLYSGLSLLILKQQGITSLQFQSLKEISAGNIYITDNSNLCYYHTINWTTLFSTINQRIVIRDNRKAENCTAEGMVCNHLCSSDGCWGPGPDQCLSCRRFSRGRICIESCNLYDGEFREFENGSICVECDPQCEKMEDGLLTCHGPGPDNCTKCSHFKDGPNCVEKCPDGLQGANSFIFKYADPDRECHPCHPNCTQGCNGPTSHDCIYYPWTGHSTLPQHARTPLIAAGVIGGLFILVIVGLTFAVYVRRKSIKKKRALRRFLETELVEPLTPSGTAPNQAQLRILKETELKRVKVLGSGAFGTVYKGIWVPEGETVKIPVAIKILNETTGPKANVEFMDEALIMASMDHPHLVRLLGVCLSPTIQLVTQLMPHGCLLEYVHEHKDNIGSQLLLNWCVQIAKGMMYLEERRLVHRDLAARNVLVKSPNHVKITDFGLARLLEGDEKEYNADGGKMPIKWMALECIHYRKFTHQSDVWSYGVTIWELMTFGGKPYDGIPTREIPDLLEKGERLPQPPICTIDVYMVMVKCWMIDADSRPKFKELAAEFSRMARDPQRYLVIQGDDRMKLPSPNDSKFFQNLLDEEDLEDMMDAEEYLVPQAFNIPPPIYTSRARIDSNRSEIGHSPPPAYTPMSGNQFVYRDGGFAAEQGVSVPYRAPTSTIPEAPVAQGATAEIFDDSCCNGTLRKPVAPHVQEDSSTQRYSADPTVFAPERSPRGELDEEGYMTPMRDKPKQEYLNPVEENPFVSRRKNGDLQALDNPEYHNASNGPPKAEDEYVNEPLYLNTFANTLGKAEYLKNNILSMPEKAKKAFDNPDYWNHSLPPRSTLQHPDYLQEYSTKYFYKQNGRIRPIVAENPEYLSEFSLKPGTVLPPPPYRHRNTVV
Method: as §1

[4] = test system: A431 cells; experiment: Cellular growth inhibition (sulforhodamine B); conditions: for IC50: Homo sapiens; for A431 Deact. (fold reduction in oxic growth inhibition relative to parent kinase inhibitor) / A431 HCR (Hypoxic Cytotoxicity Ratio): Table 3; for A431 Deact. / A431 HCR: Table 9
Method: as §2
(§3) Human A431, H1975 and SKOV3 carcinoma cells in log phase exponential growth in alpha minimal essential media (αMEM) containing 5% fetal bovine serum (FBS), were harvested by trypsinisation (1× trypsin/EDTA, Gibco Brl), counted, and seeded into 96 well plates (Nunc) at cell densities ranging from 800-1500 cells/well. Half of the cell samples were seeded into plates that were pre-equilibrated and held in an anoxic environment (90% N2, 5% H2, 5% CO2, 37° C.; Anaerobic chamber, Coy Laboratory Products). […] At the end of this period the anoxic plates were recovered from the anaerobic camber and held under normoxia in a standard CO2 incubator (37° C.) for 20 hours. All plates were washed free of compound and cells were allowed to proliferate for a further 4 days in αMEM containing 5% FBS+antibiotics. Cells were fixed in trichloroacteic acid (30 min), washed and stained with sulforhodamine B (SRB, 60 min) prior to washing in acidified water. SRB was solubilised and absorption read at 450 nm to calculate cell densities. Inhibition of proliferation was calculated relative to untreated control wells.

[5] = test system: SKBR3 cells; experiment: Cellular growth inhibition (sulforhodamine B); assay type: cell-based, Human; conditions: Table 3; for IC50: Homo sapiens, SK-BR-3
[6] = biological target: T1, erbB1 (Homo sapiens, UniProt P00533); experiment: Cellular erbB1 inhibition under oxic and hypoxic conditions in A431 cells; assay type: cell-based; conditions: 1 μM, 4 hour exposure oxic or hypoxic, washed, EGF stimulated
T1 sequence (P00533 25-1210): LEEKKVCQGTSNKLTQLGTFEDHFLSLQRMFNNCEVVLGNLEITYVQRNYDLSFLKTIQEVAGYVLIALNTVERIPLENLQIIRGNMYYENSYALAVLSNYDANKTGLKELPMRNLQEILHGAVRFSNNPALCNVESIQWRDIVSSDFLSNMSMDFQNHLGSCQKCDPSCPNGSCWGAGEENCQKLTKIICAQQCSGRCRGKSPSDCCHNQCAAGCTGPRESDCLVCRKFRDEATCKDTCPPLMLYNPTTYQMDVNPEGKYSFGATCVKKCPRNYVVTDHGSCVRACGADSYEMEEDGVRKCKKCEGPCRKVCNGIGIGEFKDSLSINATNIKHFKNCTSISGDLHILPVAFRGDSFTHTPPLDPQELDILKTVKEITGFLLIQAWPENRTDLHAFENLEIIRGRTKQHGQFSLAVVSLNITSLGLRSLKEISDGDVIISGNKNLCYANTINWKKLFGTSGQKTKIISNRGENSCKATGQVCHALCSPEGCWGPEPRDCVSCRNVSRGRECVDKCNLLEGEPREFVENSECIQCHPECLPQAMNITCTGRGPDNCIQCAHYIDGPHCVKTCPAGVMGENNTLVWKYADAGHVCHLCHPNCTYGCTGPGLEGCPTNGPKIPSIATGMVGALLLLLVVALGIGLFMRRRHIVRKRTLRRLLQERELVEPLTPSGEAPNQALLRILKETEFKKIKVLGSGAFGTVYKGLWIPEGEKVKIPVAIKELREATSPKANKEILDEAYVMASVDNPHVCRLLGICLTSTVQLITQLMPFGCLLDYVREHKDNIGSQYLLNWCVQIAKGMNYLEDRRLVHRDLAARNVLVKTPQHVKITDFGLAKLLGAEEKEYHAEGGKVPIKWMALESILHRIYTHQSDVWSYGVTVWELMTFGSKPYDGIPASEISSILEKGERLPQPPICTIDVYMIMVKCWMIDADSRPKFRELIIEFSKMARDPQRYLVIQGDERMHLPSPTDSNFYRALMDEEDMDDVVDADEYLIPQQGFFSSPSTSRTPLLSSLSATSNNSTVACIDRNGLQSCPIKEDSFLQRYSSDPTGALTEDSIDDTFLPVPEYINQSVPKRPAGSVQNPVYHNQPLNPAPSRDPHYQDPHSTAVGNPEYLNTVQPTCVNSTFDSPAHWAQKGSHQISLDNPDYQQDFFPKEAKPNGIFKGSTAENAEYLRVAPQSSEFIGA
Method: Human A431 epidermoid carcinoma cells were seeded at 400,000 cells/well in a 6 well plate in alpha minimal essential media (αMEM) containing 10% fetal bovine serum, 10 mM D-Glucose and 0.2 mM 2′-deoxycytidine. A431 cells were allowed to attach for 90 minutes under oxic or anoxic conditions, then exposed to test compounds at a concentration of 1 uM for a further 4 hours under oxic or anoxic conditions. The cells were then washed free of test compounds three times using serum free media and then returned to the incubator under oxic conditions overnight. The cells were then stimulated with 100 ng/mL EGF for 15 minutes before the medium was aspirated and the cells were washed with ice-cold PBS.

[7] = Pulse radiolysis (E(1) and fragmentation rate); assay type: physicochemical; conditions: determined against methylviologen
Method: Pulse radiolysis was used to monitor the 1-electron reduction and stability of the compounds in real time. A linear accelerator delivering short pulses of high energy electrons (2-3 Gy in 200 ns of 4 MeV) equipped with a fast spectophotometric detection system was used. (Anderson et al, J. Phys. Chem. A, 101, 9704-9709, 1997). […] The rate of fragmentation was determined by analysing kinetic transients at wavelengths corresponding to the formation of the benzyl-type radical of the trigger moiety. (Bays et al, J. Am. Chem. Soc., 105, 320-324, 1983; Anderson et al, J. Phys. Chem. A, 101, 9704-9709, 1997).
The pulse radiolysis method, for example, measures the equilibrium constant between the radical anions of the prodrugs, formed upon their 1-electron reduction, and reference standards such as viologen and quinone compounds, from which data the E(1) values of the compounds can be calculated. (Meisel and Czapski. J. Phys. Chem., 1975, 79, 1503-1509.) The E(1) values of prodrugs 17-22, 140-145 were measured by the pulse radiolysis method and determined to range between −0.493V and −0.388V (Table 4).
The rate constants for fragmentation, kfrag, of the 1-electron reduced prodrugs can be measured using pulse radiolysis to observe the time-resolved formation of the absorption spectrum of the benzyl-type radical produced upon fragmentation of the radical anion. (Anderson et al, J. Phys. Chem. A, 1997, 101, 9704-9709.) The kfrag values of prodrugs 19, 20, 140, 141 and 143-145 were measured by pulse radiolysis and are presented in Table 4.
Pulse radiolysis was used to monitor the one-electron reduction and stability of prodrug 42 in real time. A linear accelerator delivering short pulses of high energy electrons (2-3 Gy in 200 ns of 4 MeV) equipped with a fast spectophotometric detection system was used. […] The rate of fragmentation was determined by analysing kinetic transients at wavelengths corresponding to the formation of the benzyl-type radical of the trigger moiety. (Bays et al, J. Am. Chem. Soc., 105, 320-324, 1983; Anderson et al, J. Phys. Chem. A, 101, 9704-9709, 1997.)

[8] = biological target: T1, erbB1; experiment: Isolated enzyme inhibition (Invitrogen Z′-LYTE kinase assay); assay type: biochemical; conditions: 10 μM ATP, duplicate
[9] = Steady state radiolytic reduction by the CO2.− radical with HPLC-MS; assay type: physicochemical; conditions: for Detection of MNA (methyl nitroaromatic) / release of effector following 1-electron reduction: HPLC-MS; for % Loss of prodrug: HPLC-MS at 0.95 reducing equivalents; for release of effector following 1-electron reduction: steady state radiolysis
[10] = Chemical stability by HPLC; conditions: HPLC after 24 h at 37° C.
[11] = biological target: T1, erbB1; experiment: Inhibition of erbB1 autophosphorylation in EGF-stimulated intact A431 cells (Western blot); conditions: for Deact. erbB1 (fold reduction in cellular inhibition relative to the parent kinase inhibitor): Table 8, A431 cells
[12] = test system: H1975 xenografts; experiment: In vivo efficacy in H1975 xenografts; design: species or system mice; conditions: H1975 xenografts, q3dx4 at respective MTD, IP
Method: Specific pathogen-free homozygous female NIH-III nude mice (Charles River Laboratories, Wilmington, Mass.) were inoculated subcutaneously with a single cell suspension of H1975 cells (5×10^6 cells/100 μL; right flank). When H1975 tumour xenografts were established (typically 8-12 days) mice were randomized to treatment groups. All compounds were prepared in lactate buffer (pH4). Mice were dosed by intraperitoneal injection (0.01-0.03 ml/g) using the stated schedules and dose levels. For growth delay experiments mice were randomized to treatment and tumor volume [π(length×width^2)/6] and body weight were measured daily following treatment. […] Differences in RTV^4 were tested for statistical difference by Mann Whitney U test using SigmaStat v3.5.

[13] = physchem
[14] = test system: SKOV3 cells; experiment: Cellular growth inhibition (sulforhodamine B); assay type: cell-based, Human; conditions: Table 9; for IC50: Homo sapiens, SK-OV-3
[15] = test system: H1975 cells; experiment: Cellular growth inhibition (sulforhodamine B); assay type: cell-based, Human; conditions: Table 9; for IC50: Homo sapiens, NCI-H1975
Method: as §2, §3
They were then washed free of drug and incubated for a further 4 days, before being stained for cell survival with sulforhodamine B.

[16] = 24 hour exposure entirely oxic, read-out: Cellular Growth Inhibition IC50 SW620 Oxic
[17] = first 4 hours anoxic, read-out: Cellular Growth Inhibition IC50 SW620 Anoxic
[18] = A-431, 24 h, read-out: Cellular Growth Inhibition IC50 A431 Oxic
[19] = A-431, read-out: Cellular Growth Inhibition IC50 A431 Anoxic
[20] = 24 hour exposure entirely oxic, read-out: Cellular Growth Inhibition IC50 SKBR3 Oxic
[21] = first 4 hours anoxic, read-out: Cellular Growth Inhibition IC50 SKBR3 Anoxic
[22] = 24 hour exposure oxic, read-out: Cellular Growth Inhibition IC50 SKOV3 Oxic
[23] = first 4 hours anoxic, read-out: Cellular Growth Inhibition IC50 SKOV3 Anoxic
[24] = A-431, 4 h, read-out: Cellular Growth Inhibition IC50 A431 Anoxic
[25] = 24 hour exposure oxic, read-out: Cellular Growth Inhibition IC50 H1975 Oxic
[26] = first 4 hours anoxic, read-out: Cellular Growth Inhibition IC50 H1975 Anoxic

Sequence of erbB2 (P04626 23-1255): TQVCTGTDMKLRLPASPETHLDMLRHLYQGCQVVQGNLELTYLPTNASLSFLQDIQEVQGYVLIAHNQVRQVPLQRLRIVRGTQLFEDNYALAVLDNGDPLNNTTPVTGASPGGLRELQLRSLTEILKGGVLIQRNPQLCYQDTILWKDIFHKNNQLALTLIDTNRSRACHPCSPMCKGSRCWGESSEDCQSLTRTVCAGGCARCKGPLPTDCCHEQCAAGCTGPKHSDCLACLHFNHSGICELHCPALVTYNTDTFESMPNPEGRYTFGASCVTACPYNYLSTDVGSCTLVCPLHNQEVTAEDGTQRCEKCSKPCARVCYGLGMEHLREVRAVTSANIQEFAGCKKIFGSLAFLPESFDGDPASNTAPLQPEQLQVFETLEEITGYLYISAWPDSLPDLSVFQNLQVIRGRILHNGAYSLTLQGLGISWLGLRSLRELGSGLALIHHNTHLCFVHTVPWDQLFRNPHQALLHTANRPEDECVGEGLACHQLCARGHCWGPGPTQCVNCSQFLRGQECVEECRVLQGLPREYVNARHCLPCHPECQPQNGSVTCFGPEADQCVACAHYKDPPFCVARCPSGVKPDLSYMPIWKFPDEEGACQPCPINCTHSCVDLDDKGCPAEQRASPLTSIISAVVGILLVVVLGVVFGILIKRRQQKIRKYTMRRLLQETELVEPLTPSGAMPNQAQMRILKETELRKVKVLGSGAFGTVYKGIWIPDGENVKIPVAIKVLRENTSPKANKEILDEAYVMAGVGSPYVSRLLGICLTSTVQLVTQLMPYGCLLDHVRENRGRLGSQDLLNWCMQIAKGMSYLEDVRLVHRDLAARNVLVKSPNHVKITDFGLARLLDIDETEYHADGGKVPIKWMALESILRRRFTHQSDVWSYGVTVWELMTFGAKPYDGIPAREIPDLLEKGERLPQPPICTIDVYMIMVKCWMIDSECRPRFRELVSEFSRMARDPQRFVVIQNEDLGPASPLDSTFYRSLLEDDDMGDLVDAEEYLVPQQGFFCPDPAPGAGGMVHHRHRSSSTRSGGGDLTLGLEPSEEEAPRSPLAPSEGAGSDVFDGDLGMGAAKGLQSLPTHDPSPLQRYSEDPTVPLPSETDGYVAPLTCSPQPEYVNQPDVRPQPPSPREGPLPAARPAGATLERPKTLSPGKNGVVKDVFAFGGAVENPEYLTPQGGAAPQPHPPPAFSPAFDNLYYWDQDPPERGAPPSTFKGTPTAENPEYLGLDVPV

Structure (SMILES)	IC50 [1, 16] [nM]	IC50 [1, 17] [nM]	SW620 HCR [1] [fold]	IC50 [2] [nM]	IC50 [4, 18] [nM]	IC50 [4, 19] [nM]	IC50 [5, 20] [nM]	IC50 [5, 21] [nM]	SKBR3 HCR [5] [fold]	hypoxia-selective inhibition of p-erbB1 [6]	E (1)/V (one-electron reduction potential) [7] [V]	IC50 [8] [nM]	Detection of MNA (methyl nitroaromatic) [9]	% Loss of prodrug [9] [%]	release of effector following 1-electron reduction [9]	SW620 Deact. [1] [fold]	A431 Deact. (fold reduction in oxic growth inhibition relative to parent kinase inhibitor) [4] [fold]	A431 HCR (Hypoxic Cytotoxicity Ratio) [4] [fold]	SKBR3 Deact. [5] [fold]	Stability PBS (percentage parent remaining) [10] [%]	further results
CN(C)CCCC(=O)Nc1ccc2ncnc(Nc3cccc(Br)c3)c2c1 [Compound 16, N-[4-(3-bromoanilino)-6-quinazolinyl]-4-(dimethylamino)butanamide]	18600	19600	0.9	74	1260	1300	3190	5510	0.6	–	–	–	–	–	–	–	–	–	–	–	melting point: 180 to 182 °C; IC50 [3]: 113 nM
C[N+](C)(C/C=C/C(=O)Nc1ccc2ncnc(Nc3cccc(Br)c3)c2c1)Cc1ccc([N+](=O)[O-])cc1 [Compound 17, (2E)-4-{[4-(3-bromoanilino)-6-quinazolinyl]amino}-N,N-dimethyl-N-(4-nitrobenzyl)-4-oxo-2-buten-1-ammonium bromide]	112000	112000	1.0	110	462	444	1520	1840	0.8	no apparent hypoxia-selective inhibition	−0.408	0.56	No	33	did not release their respective effector compounds	33	12	1.0	19	–	–
C[N+](C)(C/C=C/C(=O)Nc1ccc2ncnc(Nc3cccc(Br)c3)c2c1)Cc1ccccc1[N+](=O)[O-] [Compound 18, (2E)-4-{[4-(3-bromoanilino)-6-quinazolinyl]amino}-N,N-dimethyl-N-(2-nitrobenzyl)-4-oxo-2-buten-1-ammonium bromide]	92200	79800	1.2	123	2340	401	3750	1290	2.8	no apparent hypoxia-selective inhibition	−0.388	0.2	No	33	did not release their respective effector compounds	27	59	5.8	44	–	–
Cn1cnc([N+](=O)[O-])c1C[N+](C)(C)C/C=C/C(=O)Nc1cc2c(Nc3ccc(F)c(C(F)(F)F)c3)ncnc2cn1 [Compound 50, (2E)-4-({4-[4-fluoro-3-(trifluoromethyl)anilino]pyrido[3,4-d]pyrimidin-6-yl}amino)-N,N-dimethyl-N-[(1-methyl-4-nitro-1H-imidazol-5-yl)methyl]-4-oxo-2-buten-1-ammonium bromide]	–	–	–	–	15300	–	–	–	–	–	–	–	–	–	–	–	–	–	–	88	Stability Water (percentage parent remaining) [10]: 99%; Stability α-MEM + FCS (5%) (percentage parent remaining) [10]: 64%; IC50 [11]: 969 nM; Deact. erbB1 (fold reduction in cellular inhibition relative to the parent kinase inhibitor) [11]: 121 fold; tumour growth inhibition (TGI) [12]: 114%; solubility ([13]; aqueous buffer): 72 µM; solubility ([13]; water): > 1300 µM; IC50 [14, 22]: 125000 nM; IC50 [14, 23]: 4780 nM; SKOV3 Deact. [14]: 126 fold; SKOV3 HCR [14]: 28.7 fold; IC50 [4, 24]: 250 nM; A431 Deact. [4]: 64 fold; A431 HCR [4]: 65.8 fold; IC50 [15, 25]: 120000 nM; IC50 [15, 26]: 3780 nM; H1975 Deact. [15]: 70 fold; H1975 HCR [15]: 43.5 fold
C#Cc1cccc(Nc2ncnc3cnc(NC(=O)/C=C/C[N+](C)(C)Cc4c([N+](=O)[O-])ncn4C)cc23)c1 [Compound 58, (2E)-4-{[4-(3-ethynylanilino)pyrido[3,4-d]pyrimidin-6-yl]amino}-N,N-dimethyl-N-[(1-methyl-4-nitro-1H-imidazol-5-yl)methyl]-4-oxo-2-buten-1-ammonium bromide]	–	–	–	–	2000	–	–	–	–	–	–	–	–	–	–	–	–	–	–	78	Stability Water (percentage parent remaining) [10]: 98%; Stability α-MEM + FCS (5%) (percentage parent remaining) [10]: 61%; IC50 [11]: 513 nM; Deact. erbB1 (fold reduction in cellular inhibition relative to the parent kinase inhibitor) [11]: 64 fold; tumour growth inhibition (TGI) [12]: 171%; solubility ([13]; aqueous buffer): > 1280 µM; solubility ([13]; water): > 1280 µM; IC50 [14, 22]: 73100 nM; IC50 [14, 23]: 2510 nM; SKOV3 Deact. [14]: 133 fold; SKOV3 HCR [14]: 38.5 fold; IC50 [4, 24]: 35 nM; A431 Deact. [4]: 74 fold; A431 HCR [4]: 77.9 fold; IC50 [15, 25]: 98900 nM; IC50 [15, 26]: 3810 nM; H1975 Deact. [15]: 86 fold; H1975 HCR [15]: 77.7 fold

From patent US9073916B2, “Prodrug forms of kinase inhibitors and their use in therapy” (AUCKLAND UNISERVICES LIMITED, priority 2009, dated 2015)
